System: U87 glioblastoma cells
Test: Cell cycle analysis (propidium iodide flow cytometry)
Format: cell-based, human
Conditions: U87, 5 µM, 48 h
Procedure: […] Cells were washed in ice-cold PBS, resuspended in 1 mL of ice-cold 70% ethanol, and fixed overnight at −20 °C. Cells were centrifuged and resuspended in PBS containing RNAse A at a final concentration of 0.5 mg/mL (MilliporeSigma 10109142001; Burlington, MA, USA) and propidium iodide at a final concentration of 0.04 mg/mL (Sigma-Aldrich P4170, St. Louis, MO, USA) for 1 h at 37 °C. Nuclear staining was analyzed using a BD FACSCanto II flow cytometer (BD Biosciences; Franklin Lakes, NJ, USA) to determine cell cycle distribution. Cell cycle analysis was performed using the BD FACSDiva software v8.0.

## CO[C@H]1C[C@@H](C(=O)NC(=O)Nc2ccc(Oc3ccc(Cl)cn3)c(C)c2)C1 [RGN3067]
  cells arrested at G2/M: 73%

Source: article PMC10887108, “Novel Brain-Penetrant, Small-Molecule Tubulin Destabilizers for the Treatment of Glioblastoma” (Biomedicines, 2024)
